From publication PMC9820279 (International Journal of Molecular Sciences, 2022)
Read-outs that look alike come from different tables or passages of the source.

System: HBMEC monolayer
[1] = matrix ASFE extract 24 µg/mL, 2 h incubation, n.d = not detected in lower compartment
[2] = matrix ASFE extract 24 µg/mL, 4 h incubation, n.d = not detected in lower compartment

Description: The cell line HBMEC was used as a simplified in vitro model of the BBB endothelium. […] Endothelial cell cultures were maintained at 37 °C in a humid atmosphere enriched with 5% CO2. In our studies, HBMEC were used between passage 25 and 29. For experiments, HBMECs were seeded using a volume of 200 µL at a density of 8 × 10^4 cells/mL in rat tail collagen-I (100 µg/mL) coated 96-well plates (for viability assay) or 500 µL at a density of 1.6 × 10^5 cells/mL in rat tail collagen-I (100 µg/mL) coated semi-permeable membranes in transwell inserts (0.4 µm pore, Corning Costar Corp., USA; for BBB integrity and transport assays) for 12-well plates. The incubation timepoints were assay dependent.
For the transendothelial transport assays, HBMEC were seeded on transwell inserts as described above and are schematically depicted in Figure 1a. After seeding, the media were changed every two days. Four days post-seeding, the HBMEC monolayer was formed, and the transport studies were performed. […] Vupper and Vlower is the upper and lower compartment volume (0.5 and 1.5 mL, respectively). The culture inserts were used for the subsequent integrity permeability studies.

## C=CC(C)(O)CCC=C(C)CCC=C(C)C (mixture of isomers) [Nerolidol]
human
  Te % (SEM) 2 h: 30.1 (2.5) %
  Te % (SEM) 4 h: 59.8 (2.4) %

## C[C@H]1[C@H](C)CC[C@]2(CO)CC[C@]3(C)C(=CC[C@@H]4[C@@]5(C)CC[C@H](O)C(C)(C)[C@@H]5CC[C@]43C)[C@H]12 (single isomer, unassigned) [Uvaol Isomer I, Uvaol]
human
  Te % (SEM) 2 h: 3.3 (0.1) %
  Te % (SEM) 4 h: 38.8 (3.2) %

## C[C@H]1[C@H](C)CC[C@]2(CO)CC[C@]3(C)C(=CC[C@@H]4[C@@]5(C)CC[C@H](O)C(C)(C)[C@@H]5CC[C@]43C)[C@H]12 (single isomer, unassigned) [Uvaol Isomer II, Uvaol]
human
  Te % (SEM) 2 h: 17.7 (1.0) %
  Te % (SEM) 4 h: 38.3 (0.7) %

## CC1=CCC2C(C1)C2(C)C (stereo not shown) [3-Carene]
human, 4 h, 15 µg/mL
  Te % (SEM) 4 h: 20.3 (0.9) %

## C/C=C/C(=O)C1=C(C)CC(O)CC1(C)C (stereo not drawn) [3-hydroxy-β-damascone]
  Te % (SEM) 2 h: 84.5 (3.2) %

## C[C@@H]1CC[C@@H]2[C@@H]1[C@H]1[C@@H](CC[C@@]2(C)O)C1(C)C [(-)-Globulol]
  Te % (SEM) 2 h: 44.1 (3.6) %

## CC1=CCCC2(C)CCC3C(C)(C)CC132 (stereo not drawn) [(−)-α-Panasinsen]
  Te % (SEM) 2 h: 19.8 (0.2) %

## CC1(C)C2CCC1(C)C(O)C2 (stereo not shown) [Borneol]
human, 2 h, 40 µg/mL
  Te % (SEM) 2 h: 8.5 (0.3) %
human, 4 h, 40 µg/mL
  Te % (SEM) 4 h: 35.2 (0.1) %

## O=C(/C=C/c1ccc(O)c(O)c1)c1ccc(O)cc1O [Butein]
[1]
  Te % (SEM) 2 h: 27.5 (2.0) %
[2]
  Te % (SEM) 4 h: 36.3 (2.6) %

## O=C(O)/C=C/c1ccc(O)c(O)c1 [Caffeic acid]
human, 2 h, 24 µg/mL
  Te % (SEM) 2 h: 55.4 (3.7) %
human, 2 h, 30 µg/mL
  Te % (SEM) 2 h: 34.8 (1.2) %
human, 4 h, 24 µg/mL
  Te % (SEM) 4 h: 68.3(0.3) %
human, 4 h, 30 µg/mL
  Te % (SEM) 4 h: 50.1 (3.4) %

## O=C(/C=C/c1ccc(O)c(O)c1)OC1[C@H](O)CC(O)(C(=O)O)C[C@H]1O (stereo partly shown) [Caffeoylquinic acid]
  Te % (SEM) 2 h: 15.7 (0.4) %
  Te % (SEM) 4 h: 74.8 (2.9) %

## CC(C)[C@H](C)CC[C@@H](C)[C@H]1CC[C@H]2[C@@H]3CC=C4C[C@@H](O)CC[C@]4(C)[C@H]3CC[C@]12C [Campesterol]
human
  Te % (SEM) 2 h: 68.7 (2.2) %

## C=C1CC[C@H]2O[C@]2(C)CC[C@@H]2[C@@H]1CC2(C)C [Caryophyllene oxide]
  Te % (SEM) 2 h: 67.7 (0.9) %

## C[C@H]1[C@H](C)CC[C@]2(C(=O)O)CC[C@]3(C)C(=CC[C@@H]4[C@@]5(C)C[C@@H](O)[C@H](O)C(C)(C)[C@@H]5CC[C@]43C)[C@H]12 [Corosolic acid]
[1]
  Te % (SEM) 2 h: 33.4 (1.9) %
[2]
  Te % (SEM) 4 h: 39.6 (1.9) %

## O=C(/C=C/c1ccc(O)cc1)O[C@@H](C(=O)O)[C@@H](O)C(=O)O [Coutaric acid]
ASFE extract
  Detection / transport to lower compartment (brain side) of HBMEC-BBB model: not detected in the lower compartment

## CC1(C)CCCC2(C)OC(=O)C=C12 (stereo not shown) [Dihydroactinidiolide]
human
  Te % (SEM) 2 h: 42.2 (3.5) %
  Te % (SEM) 4 h: 51.8 (3.0) %

## C=C[C@]1(C)CC[C@@H](C(C)(C)O)C[C@H]1C(=C)C [Elemol]
  Te % (SEM) 2 h: 24.6 (0.5) %
  Te % (SEM) 4 h: 25.4 (1.6) %

## CCOC(=O)/C=C/c1ccc(O)c(O)c1 [Ethyl caffeate]
  Te % (SEM) 2 h: 33.4 (2.4) %
  Te % (SEM) 4 h: 35.7 (0.3) %

## O=C(O)c1cc(O)c(O)c(O)c1 [Gallic acid]
human, 2 h, 30 µg/mL
  Te % (SEM) 2 h: 33.0 (1.9)/39.9 (1.4) %
human, 4 h, 30 µg/mL
  Te % (SEM) 4 h: 62.9 (0.3)/67.9(1.3) %
[1]
  Te % (SEM) 2 h: 33.0 (1.9)/39.9 (1.4) %
[2]
  Te % (SEM) 4 h: 62.9 (0.3)/67.9(1.3) %

## CC(CC(=O)CC(C)C1CC(O)C2(C)C3=C(C(=O)CC12C)C1(C)CCC(O)C(C)(CO)C1CC3)C(=O)O (stereo not shown) [Ganolucidic acid C]
[1]
  Te % (SEM) 2 h: 11.7 (0.7) %
[2]
  Te % (SEM) 4 h: 15.6 (0.3) %
